From US12630589B2, “Compounds for use in viral infections” (priority 2020, dated 2026)
Like-named read-outs stand apart in the source and are kept apart here.

Experiments:
WNV-NY99 (lineage 1) [1] = test: Intracellular WNV RNA load by RT-qPCR, Vero-E6 cells; assay type: cell-based, West Nile virus; settings: 48 hours
NF-κB = NF-κB transactivation luciferase assay in THP-1 cells; assay type: cell-based, human; settings: THP-1 NF-κB-Luc cells, 100 nM plitidepsin, 6 hours, with poly I:C, LPS-B5 or Resiquimod
Experimental: To that end, we took advantage of THP-1 cells stably transfected with an NFκB luciferase reporter plasmid. We treated the cells with 100 ng/mL TNFα (an activator of NF-κB), 500 μg/mL poly I:C (TLR3 ligand), 10 μg/mL LPS-B5 (TLR4 ligand) or 10 g/mL Resiquimod (TLR-7/8 ligand). The compounds were used either alone (FIG. 1A grey bars) or combined with 100 nM of plitidepsin (FIG. 1A black bars) for 6 hours, and quantified the luciferase activity under each condition.
NF-κB transactivation was assayed using the Bright-Glo™ Luciferase Assay System following the manufacturer's instructions. The NF-κB reporter (Luc)-THP-1 human monocytic, cells stably transfected with NF-κB-Luc plasmid (containing four NF-κB binding sites, a minimal promoter and a luciferase gene), were exposed to 100 ng/mL TNFα (positive control), 500 μg/mL poly (I:C) (Polyinosinic-polycytidylic), 10 μg/mL LPS-B5 (Lipopolysaccharide from Escherichia coli 055:B5) or 10 g/mL Resiquimod. The compounds were used either alone or combined with 100 nM plitidepsin for 6 hours. Luminescence was measured in a Perkin-Elmer EnVision reader. A MTT (3-(4,5-dimethylthiazol-2-yl)-2,5-diphenyltetrazolium bromide) cell proliferation assay was simultaneously performed to control the cytotoxicity of the compounds. Cell survival was expressed as percentage of control cell growth. […]

WNV-NY99 (lineage 1) [2] = test: Intracellular WNV RNA load by RT-qPCR, Huh-7 cells; assay type: cell-based, West Nile virus; settings: 48 hours
TNFα = test: Resiquimod-triggered TNFα secretion in BALF of mice; assay type: in vivo; settings: mice 1 mg/kg i.v. 1 hour before 50 μg/mouse intranasal RQ; 1 or 3 hours
Huh7 cells = test: Cell biomass (DAPI) in Huh7 cells; assay type: cell-based, human; settings: 48 hours
Experimental: (§1) Relative infection efficiency was assessed by automated fluorescence microscopy in the green channel and overall cell biomass/well was estimated by nuclear staining with DAPI in the blue channel, as a preliminary assessment of the compound effective doses as well as overall compound cytotoxicity.
(§2) Infection experiments: Cells were seeded onto 96-well plates (2×10^4 cells/well). The day after, serial 5-fold dilutions of plitidepsin were prepared in 2% FCS-containing complete media to achieve the indicated final concentrations. WNV-GFP stock was diluted in complete media containing 2% FCS to achieve the required multiplicity of infection (MOI 0.01). Compound and virus dilutions were mixed 1:1 and added onto the target cells. Cells were incubated for 48 hours at 37° C.; 5% CO2 and 95% humidity.
(§3) Cells were fixed by addition of a 5× formaldehyde solution to achieve a 4% final concentration for 30 mins at room temperature. Cells were washed with PBS and stained with DAPI (4′,6-diamidino-2-phenylindole) following manufacturer's recommendations. Relative infection efficiency was estimated by image analysis in an automated microscopy device (Tecan Spark Cyto). Uninfected cells and vehicle-treated controls were included in each plate.

[3] = test system: IL-1, IL-6, IL-8 and TNFα secretion; test: ELISA assays for secreted cytokines in THP-1 cells; assay type: cell-based, human; settings: 100 nM plitidepsin, 6 hours, TLR ligands
Experimental: To investigate whether plitidepsin inhibits the TLR-trigged cytokine secretion, we treated THP-1 cells with 100 ng/mL TNFα (an activator of NF-κB), 500 μg/mL poly I:C (TLR3 ligand), 10 g/mL LPS-B5 (TLR4 ligand) or 10 g/mL Resiquimod (TLR-7/8 ligand). The compounds were used either alone (grey bars) or combined with 100 nM of plitidepsin (red bars) for 6 hours. We compared the variations in cytokine secretion in the cell culture supernatants between the different treatments by ELISA assays.
THP1-NFκB-LUC cell cultures were treated as described above, and the culture medium was sampled at 6 hours post-treatment to assay for secreted cytokines by ELISA. Media samples were stored at 4° C. IL-8, IL-1β, IL-6 and TNF□ protein secretion into culture medium was quantitated using highly specific and sensitive ELISA kits. Human IL-1b, human IL-6, human IL-8 and human TNF OptEIA™ ELISA kits were obtained from BD Biosciences and performed as described by the manufacturer. The data presented are the average of three independent experiments performed in triplicate.

[4] = test system: IL6, IL8, IL1β and TNF-α secretion; test: Plitidepsin pre-treatment of THP-1 cells before Resiquimod stimulus, cytokine secretion; assay type: cell-based, human; settings: 1, 10 or 50 nM added 8 hours before Resiquimod 2.5 or 5 μg/mL; read at 24 hours
Experimental: (§4) In a further in vitro experiment, the effect of plitidepsin (APL) pre-treatment on THP-1 cells was studied. Using a THP-1 NFκB luc line, 1, 10 or 50 nM of APL or DMSO (0.2%) was added 8 hours before stimulus with Resiquimod (RQ) at 2.5 or 5 μg/mL. RQ is a TLR7/8 agonist and mimics ssRNA. At 24 hours the level of cytokines or cell viability was measured.

[5] = test system: THP-1 human monocytic cells; test: MTT cell proliferation assay (compound-induced cytotoxicity); settings: activators combined with 100 nM plitidepsin, 6 hours
Experimental: To that end, we took advantage of THP-1 cells stably transfected with an NFκB luciferase reporter plasmid. We treated the cells with 100 ng/mL TNFα (an activator of NF-κB), 500 μg/mL poly I:C (TLR3 ligand), 10 μg/mL LPS-B5 (TLR4 ligand) or 10 g/mL Resiquimod (TLR-7/8 ligand). The compounds were used either alone (FIG. 1A grey bars) or combined with 100 nM of plitidepsin (FIG. 1A black bars) for 6 hours, and quantified the luciferase activity under each condition. […] Survival was analysed with the MTT assay (FIG. 1B grey bars (activators) and red bars (activators combined with 100 nM of plitidepsin)).
NF-κB transactivation was assayed using the Bright-Glo™ Luciferase Assay System following the manufacturer's instructions. […] Luminescence was measured in a Perkin-Elmer EnVision reader. […] Cell survival was expressed as percentage of control cell growth. […]
Cells were seeded in 96 well microtiter plates and allowed to stand for 24 hours at 37° C. and 5% CO2 before treatment described above. After 6 hours of continuous treatment, cellular viability was estimated from conversion of MTT to its coloured reaction product, MTT formazan, which was dissolved to measure its absorbance at 540 nm. […]

alveolar macrophages = test: Alveolar macrophage recruitment in mice (LPS inflammation model, flow cytometry); settings: for macrophages in bronchoalveolar lavage: single iv administration
From the text: Also we checked the effect of plitidepsin on alveolar macrophage recruitment. Viral infection also leads to the activation of macrophages. Activated macrophages are twice the size of resting macrophages and are more “aggressive”, having increased levels of lysosomal proteins and a greater ability to phagocytose. Classically activated macrophages also release proteases, neutrophil chemotactic factors, reactive oxygen species and pro-inflammatory cytokines (such as IL-1 beta/IL-1F2, IL-6, and TNF-alpha/TNFSF1A), leading to inflammation and tissue destruction. Bronchoalveolar lavage cells were stained and analyced by flow cytometry.
To investigate whether plitidepsin decreases the percentage of alveolar macrophage in animals with acute inflammation, we treated mice with plitidepsin (1 mg/kg) i.v., with LPS (20 μg/kg) i.p. in sterile saline or with plitidepsin (1 mg/kg; i.v.) in combination with LPS (20 μg/kg, i.p.). Three hours later, bronchoalveolar lavages were collected. Bronchoalveolar lavage cells were obtained by centrifugation and analyzed by flow cytometry (FIG. 4b). Upper panels show the strategy of analysis of macrophage population present in the samples. Lower right panel show the same result expressed as percentage of cells. Lower left panel show the percentage of CD45+(leucocyte marker) alive cells.
Bronchoalveolar lavage cells were obtained by centrifugation and analyzed by flow cytometry.
Bronchoalveolar lavage cells were stained with anti-F4/80-BV510, CD45-APC700, CD11b-BV650, CD11c-APC-Fire, CD24-PC7 and Ly6C-BV605 monoclonal antibodies (Biolegend) and a LIVE/DEAD™ Fixable Green Dead Cell Stain Kit, for 488 nm excitation (Thermofisher). Macrophages (F4/80+) were gated on alive immune cells (CD45+ LIVE/DEAD dye−), while alveolar macrophages (F4/80+CD24−) were specifically gated on CD11c+CD11b− population from alive immune cells. Isotype controls and compensation beads were used to set compensations and gating strategies.

[6] = test system: IL-6, IL-10 and TNFα secretion; test: Ex vivo LPS-B5-triggered cytokine secretion in bronchoalveolar lavage cells of treated mice; set-up: species or system mouse
Experimental: We checked whether plitidepsin inhibits the LPS-trigged cytokine secretion in alveolar macrophages. To that end mice were injected i.v. with plitidepsin (1 mg/kg) or vehicle and 12 hours after administration bronchoalveolar lavage fluid (BAL) was collected. Cells were plated and treated ex-vivo or not with 15 μg/mL of LPS-B5 for 3 or 6 hours and secreted cytokines were measured.
Mice were randomized into groups of five animals to receive the treatments. Mice were injected intra venous (i.v.) with plitidepsin (1 mg/kg) and 12 hours after administration were euthanised. Control group received plitidepsin vehicle diluted with saline (Cremophor/Ethanol/Water). Bronchoalveolar lavage fluid (BAL) of each group was collected and centrifugated to obtain bronchoalveolar lavage cells. Cells underwent red blood cell lysis (Roche) and were plated and treated ex-vivo or not with 15 μg/mL of LPS-B5 for 3 or 6 hours. Secreted cytokines were measured using highly specific and sensitive ELISA kits. Mouse IL-6, mouse IL-10 and mouse TNF DuoSet ELISA kits were obtained from R&D Systems and performed as described by the manufacturer.

VeroE6 cells = test: Cell biomass (DAPI) in VeroE6 cells; assay type: cell-based, African green monkey; settings: 48 hours
Experimental: as §1, §2, §3

[7] = test system: WNV-GFP (lineage 2; molecular clone WN956)
[8] = Plasma pharmacokinetics in mouse (Table 1); assay type: in vivo; settings: Mouse (F) C57BL6/J, 1.0 mg/kg single intravenous bolus
WNV-NY99 (lineage 1) [9] = test: WNV/NY99 extracellular infectivity titers, Vero-E6 cells; assay type: cell-based, West Nile virus; settings: VeroE6 cells, 45 nM, MOI 0.01, 48 hours
THP-1 cells = test: Cell viability after plitidepsin pre-treatment and Resiquimod stimulus; assay type: cell-based, human; settings: 1, 10 or 50 nM, Resiquimod 2.5 or 5 μg/mL, 24 hours
Experimental: as §4

[10] = test system: WNV-GFP (lineage 2; molecular clone WN956); test: WNV-GFP infection efficiency in Huh7 cells; assay type: cell-based, West Nile virus
WNV-NY99 (lineage 1) [11] = test: WNV/NY99 extracellular infectivity titers, Huh-7 cells; assay type: cell-based, West Nile virus; settings: 45 nM, MOI 0.01, 48 hours

(−)-(3S,6R,7S,10R,11S,15S,17S,20S,25aS)-11-hydroxy-3-(4-methoxybenzyl)-2,6,17-trimethyl-15-(1-methylethyl)-7-[[(2R)-4-methyl-2-[methyl[[(2S)-1-(2-oxopropanoyl)pyrrolidin-2-yl]carbonyl]amino]pentanoyl]amino]-10-[(1S)-1-methylpropyl]-20-(2-methylpropyl)tetradecahydro-15H-pyrrolo[2,1-f]-[1,15,4,7,10,20]dioxatetrazacyclotricosine-1,4,8,13,16,18,21(17H)-heptone [PLD]
intracellular viral RNA load (WNV-NY99 (lineage 1) [1]; 5 and 1.5 nM): not distinguishable from those in the control | intracellular viral RNA load (WNV-NY99 (lineage 1) [1]; 15 and 45 nM): significantly decreased in a dose-dependent manner | NF-κB transactivation (production of luciferase) (NF-κB): clearly inhibited the production of luciferase | intracellular viral RNA load (WNV-NY99 (lineage 1) [2]; 15 nM): marked reduction in viral load | RNA recovery from cells (WNV-NY99 (lineage 1) [2]; 45 nM): no RNA could be recovered | production of TNFα induced by Resiquimod in BALF (TNFα): prevented the increased production of TNFα | CC50 (Huh7 cells): 14.7 nM | concentration at which loss of cell biomass is statistically significant (p<0.05) (Huh7 cells): 7.2 nM | production of IL-1, IL-6, IL-8 and TNFα (ELISA) [3]: clearly inhibited the production of IL-1, IL-6, IL-8 and TNFα | secretion of IL6, IL8, IL1β and TNF-α induced by RQ [4]: inhibited secretion of the pro-inflammatory cytokines: IL6, IL8, IL1β and TNF-α | cytotoxic effect (survival, MTT assay) [5]: No cytotoxic effect was detected | cytotoxic effects on bronchoalveolar lavage cells (alveolar macrophages; 1 mg/kg i.v.): without cytotoxic effects | percentage of macrophages present on bronchoalveolar lavage (alveolar macrophages; plitidepsin 1 mg/kg i.v. with LPS 20 μg/kg i.p., 3 hours): decrease the percentage of macrophages | macrophages in bronchoalveolar lavage (alveolar macrophages): reduces the number of macrophages in BAL | macrophages in bronchoalveolar lavage (alveolar macrophages; listed as Plitidepsin): decreased the percentage of macrophages | production of IL-6 and TNF-α induced by LPS ([6]; mice 1 mg/kg i.v., BAL at 12 hours, cells treated ex vivo with 15 μg/mL LPS-B5 for 3 or 6 hours): clearly inhibited the production of pro-inflammatory cytokines IL-6, and TNF-α | secretion of IL-6, IL-10 and TNFα induced by LPS-B5 in CD45+ cells from broncho-alveolar lavages ([6]; treated animals, 3 and 6 hours): significantly reduce the secretion of IL-6, IL-10 and TNFα | concentration at which cell number significantly decreased (p<0.05) (VeroE6 cells): 180 nM | concentration up to which cell number remained unchanged (VeroE6 cells): up to 36 nM | CC50 (VeroE6 cells; read-out: CC50 based on the cell biomass): 2330 nM | concentration with antiviral activity in the absence of measurable interference with cell viability (p<0.05) ([7]; Vero-E6 cells): 7.2 nM | therapeutic index (ratio CC50/EC50) ([7]; VeroE6 cells): 475 | concentration at which infection efficiency reaches background fluorescence levels ([7]; VeroE6 cells, 48 hours): ≥ 36 nM | EC50 ([7]; read-out: EC50, WNV-GFP infection efficiency, VeroE6 cells, MOI 0.01, 48 hours): 4.9 nM | EC90 ([7]; read-out: EC90, WNV-GFP infection efficiency, VeroE6 cells, MOI 0.01, 48 hours): 9.5 nM | Cl [8]: 73.3 mL/min/kg | reduction of extracellular infectivity titers (WNV-NY99 (lineage 1) [9]): > 3 orders of magnitude | cell viability over the untreated control (THP-1 cells): does not decrease viability over the untreated control | EC50 ([10]; Huh7 cells, MOI 0.01, 48 hours): 0.665 nM | EC90 ([10]; Huh7 cells, MOI 0.01, 48 hours): 3.86 nM | concentration with antiviral activity in the absence of measurable interference with cell viability (p<0.05) ([10]; Huh-7 cells): 1.5 nM | reduction of extracellular infectivity titers (WNV-NY99 (lineage 1) [11]): > 3 orders of magnitude
